Results from patent US20250090461A1, “CELL-WALL BINDING PROTEIN SPECIFICALLY TARGETING CUTIBACTERIUM ACNES” (MASSACHUSETTS INSTITUTE OF TECHNOLOGY, priority 2022, published 2025).

What was measured:
Cutibacterium acnes [1] = assay: Minimum Inhibitory Concentration of benzoyl peroxide on C. acnes; format: cell-based; conditions: OTC product containing 10% BPO used; FIG. 4
From the text: An OTC product containing 10% BPO was used in this experiment.
The advantage of SmartArrow is that it will deliver the active ingredients to where the bacteria reside. As a result, a much lower dosage of bioactive can be loaded in SmartArrow to achieve high killing of the bacteria compared to untargeted liposomes. As little as 0.002% BPO can achieve total killing of C. acnes (FIG. 4). Considering the BPO concentrations found in the retail market ranges from 2.5%-10%, which is ˜1000-fold higher than what is needed to kill the bacteria, it is not surprising to find most users of these retail products routinely suffer several side effects such as dry peeling skin. By using the SmartArrow approach, we can conservatively load 0.02% BPO into a liposome, which is 100× less than the retail products, to achieve total bacterial killing and reducing the side effects to a minimum.

Cutibacterium acnes [2] = assay: Confocal microscopy binding of EGFP-tagged lysin to C. acnes; conditions: 2.5 mg/ml; four C. acnes strains (6919, 11828, 11827, HC038-PAI); FIG. 1
Experimental: (§1) To check the binding spectrum of the engineered lysin SmartNovaC, 2.5 mg/ml of SmartNovaC was applied against four C. acnes strains, Enterococcus faecalis strain OG1 RF, Staphylococcus epidermidis strain PCI1200 and Pseudomonas aeruginosa strain PA14. Since SmartNovaC was cloned in a plasmid that would co-express the EGFP tag, the fluorescent lysin can be visualized using confocal microscopy.
To further examine whether SmartNovaC is the only lysin that binds specifically to C. acnes, the binding of NovaC and another lysin DukeC2Rap that were synthesized with EGFP co-expressed were tested. DukeC2Rap lysin was obtained as CBD of Doucette lysin targeting Propionibacterium freudenreichii species, which is from the same genus as C. acnes. The nucleotide and amino acid sequences of the DukeC2Rap are provided below.
NovaC and DukeC2Rap at concentrations of 2.5 mg/ml and 1.3 mg/ml, respectively, were tested for binding against two C. acnes strains.

[3] = test system: Enterococcus faecalis strain OG1 RF; assay: Confocal microscopy binding of EGFP-tagged lysin to E. faecalis; conditions: 2.5 mg/ml; FIG. 1 E1-3
Experimental: as §1

[4] = test system: Pseudomonas aeruginosa strain PA14; assay: Confocal microscopy binding of EGFP-tagged lysin to P. aeruginosa; conditions: 2.5 mg/ml; FIG. 1 F1-3
Experimental: as §1

[5] = test system: Staphylococcus epidermidis strain PCI1200; assay: Confocal microscopy binding of EGFP-tagged lysin to S. epidermidis; conditions: 2.5 mg/ml; FIG. 1 G1-3
Experimental: as §1

Row | Compound | BPO concentration achieving total killing of C. acnes (MIC) (Cutibacterium acnes [1]) [%] | binding to C. acnes (green fluorescence) (Cutibacterium acnes [2]) | binding to E. faecalis OG1RF [3] | binding to P. aeruginosa PA14 [4] | binding to S. epidermidis [5]
1 | O=C(OOC(=O)c1ccccc1)c1ccccc1 [BPO, benzoyl peroxide] | 0.002 |  |  |  | 
2 | SmartNovaC (GSVNKLHHDVGVVQVQNGDLSKRVDALSWV) |  | specific binding | could not bind | could not bind | could not bind
